Source: patent EP3463364B1, “PYRAZINE DERIVATIVES FOR USE IN THE TREATMENT OF DISEASES ASSOCIATED WITH CELL CYCLE DYSREGULATION” (University of Patras, priority 2016, dated 2017)

Target: T1, Geminin (Homo sapiens, UniProt O75496)
T1 construct: the full length human Geminin ortholog was used; expressed in transfected cells; host or cells: MCF7
T1 sequence (O75496 1-209): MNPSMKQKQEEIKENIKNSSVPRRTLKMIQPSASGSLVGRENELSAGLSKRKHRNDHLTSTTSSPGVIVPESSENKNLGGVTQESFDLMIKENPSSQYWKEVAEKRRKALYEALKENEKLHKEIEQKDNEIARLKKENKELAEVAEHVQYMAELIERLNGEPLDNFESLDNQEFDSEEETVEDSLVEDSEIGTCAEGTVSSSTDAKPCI
Assay: Intracellular localization of exogenous Geminin-GFP in co-transfected MCF7 cells (fluorescence microscopy)
Assay type: cell-based
Conditions: 100µM, 24-hour incubation
Source text: A cellular assay was developed and applied using epithelial cells of breast adenocarcinoma (MCF7), for the purpose of the ex vivo study of the mechanism by which the inhibitory effect of the synthetic chemical compound affects the functional significance of the Geminin-Cdtl protein interaction.
Therefore, in order to determine the mechanism of action of the synthetic chemical compound AF-615/30368009, its effect on the Geminin nucleo-cytoplasmic translocation was studied ex vivo.
For the purposes of this experiment, the full length human Geminin ortholog was used as well as the protein Cdt1^DEL which corresponds to the human ortholog which lacks the amino acid residues 170-190. […]
For the implementation of the cellular assay, an appropriate number of cells were seeded onto glass coverslips and cells were allowed to culture in order to adhere. […] Then, the coverslips were washed with 1x PBS buffer (2 times), mounted on microscope slides using mounting medium containing the dye DAPI (that stains only nuclei) and were observed under a fluorescence microscope. […]
The experimental design included the transient co-transfection of MCF7 cancer cells with Geminin-GFP & dhcRed and Geminin-GFP & Cdt1^DEL-dhcRed. […] The intracellular localization of Geminin was detected by the autofluorescence of the GFP molecule. […]

intracellular localization of Geminin (MCF7, co-transfection with Geminin-GFP & Cdt1^DEL-dhcRed (Fig. 4)): no detectable change
percentage of cells with nuclear localization of Geminin (MCF7, co-transfection with Geminin-GFP & dhcRed (Fig. 4)): statistically significant increase
Compound: O=C(NNC(=S)N1CCOCC1)c1cnccn1 [AF-615/30368009, N'-(morpholine-4-carbothioyl)pyrazine-2-carbohydrazide]
